From patent US9962113B2, “Sensor for measuring the activity of beta-pancreatic cells or of islets of langerhans, manufacture and use of such a sensor” (UNIVERSITE DE BORDEAUX 1, priority 2010, dated 2018)
Where no end group is shown, it is not given here.

Test system: β-pancreatic cells
Assay: Electrical signals (action potentials) of β-pancreatic cells in culture on the microelectrode sensor of FIG. 1
Assay type: cell-based
Description: In the example embodiment shown in FIG. 1, the sensor 2 includes a set of 60 microelectrodes distributed over 1 mm^2. The microelectrodes 21 have a disk shape 10 μm in diameter. The sensor 2 also includes β-pancreatic cells 23 in culture on the set of 60 microelectrodes 21. Laboratory tests have been conducted on the sensor 2 of FIG. 1. The first line of FIG. 2 specifies the times at which glucose is present at 20 mM, i.e. from 0 to 50 min. The second line specifies the times at which diazoxide is present at 200 μM, i.e. from around 13 to 16 min and around 27 to 35 min. […] An action potential waveform is visible at the dotted vertical line. The first line of FIG. 4 specifies the time at which the β-pancreatic cells 23 of the sensor 2 are placed in contact with the incretin hormone GLP-1, shown by a vertical arrow.

Row | Compound | reversibility of the diazoxide effect on electrical activation (FIG. 2, after removal of diazoxide, glucose 20 mM alone) | physiological activity (action potentials) of the β-pancreatic cells of the sensor in the presence of diazoxide (FIG. 2, diazoxide 200 μM (around 13 to 16 min and 27 to 35 min) with glucose 20 mM) | time after GLP-1 injection until electrical activation increases (FIG. 4) | electrical activation (action potentials) of the β-pancreatic cells after GLP-1 (FIG. 4, after injection of the incretin hormone GLP-1)
1 | CC1=NS(=O)(=O)c2cc(Cl)ccc2N1 [diazoxide] | not definitive | basal physiological activity |  | 
2 | GLP-1: incretin hormone, a physiological amplifier of the glucose response (HAEGTFTSDVSSYLEGQAAKEFIAWLVKGR; ends and bridges not checked; UniProt P01275 98-127, looked up) |  |  | twenty | increases significantly
